Experimental data reported in the NIST ThermoML archive (doi:10.1016/j.tca.2011.08.002).

Test: refractive index (Na D-line) (dimensionless); xn = mol fraction of the nth substance listed
Details: 101 kPa, Liquid, Standard Abbe refractometry

C1CCC(NC2CCCCC2)CC1 [N-cyclohexylcyclohexanamine] + CCCO
refractive index
Details	288.15 K	293.15 K	298.15 K	303.15 K	308.15 K	313.15 K	318.15 K	323.15 K
x2 = 0	1.48636	1.48416	1.48198	1.47978	1.47761	1.47562	1.47347	1.47134
x2 = 0.0527	1.48522	1.48299	1.48079	1.47861	1.47642	1.4743	1.47211	1.46997
x2 = 0.1009	1.48396	1.48175	1.47952	1.47729	1.47508	1.47287	1.47068	1.46853
x2 = 0.2004	1.48074	1.47851	1.47626	1.47402	1.47179	1.4695	1.4673	1.4651
x2 = 0.3002	1.47672	1.47445	1.47217	1.4699	1.46765	1.46533	1.46306	1.46087
x2 = 0.4003	1.47182	1.4695	1.46722	1.46491	1.46262	1.46024	1.45795	1.4557
x2 = 0.5005	1.46554	1.4632	1.46088	1.45856	1.45625	1.45383	1.45151	1.4492
x2 = 0.6	1.45743	1.45509	1.45273	1.4504	1.44805	1.44565	1.44331	1.44112
x2 = 0.6998	1.44689	1.44458	1.44226	1.43992	1.43759	1.43509	1.43279	1.43046
x2 = 0.8	1.4327	1.43047	1.4282	1.42592	1.42358	1.42112	1.41883	1.41649
x2 = 0.8999	1.41365	1.41145	1.40927	1.40709	1.40482	1.40242	1.40021	1.39788
x2 = 0.9491	1.40206	1.39989	1.3977	1.39547	1.39323	1.39093	1.38876	1.38638
